Experimental data published in ChEMBL document CHEMBL1955733, “Optimization of 5-pyridazin-3-one phenoxypropylamines as potent, selective histamine H₃ receptor antagonists with potent cognition enhancing activity” (J Med Chem, 2012).

Columns and labels:
[1] = Clearance in Sprague-Dawley rat at 1 mg/kg, iv and 5 mg/kg, po; format: ADME, organism-based; conditions: in vivo
[2] = Half life in Sprague-Dawley rat at 1 mg/kg, iv and 5 mg/kg, po; format: ADME, organism-based; conditions: in vivo
[3] = target: Histamine H3 receptor (Rattus norvegicus, UniProt Q9QYN8); test: Displacement of [3H]NAMH from rat cloned […] expressed in CHO cells; format: cell-based
Sequence of Histamine H3 receptor (Rattus norvegicus, UniProt Q9QYN8) (Q9QYN8 whole entry): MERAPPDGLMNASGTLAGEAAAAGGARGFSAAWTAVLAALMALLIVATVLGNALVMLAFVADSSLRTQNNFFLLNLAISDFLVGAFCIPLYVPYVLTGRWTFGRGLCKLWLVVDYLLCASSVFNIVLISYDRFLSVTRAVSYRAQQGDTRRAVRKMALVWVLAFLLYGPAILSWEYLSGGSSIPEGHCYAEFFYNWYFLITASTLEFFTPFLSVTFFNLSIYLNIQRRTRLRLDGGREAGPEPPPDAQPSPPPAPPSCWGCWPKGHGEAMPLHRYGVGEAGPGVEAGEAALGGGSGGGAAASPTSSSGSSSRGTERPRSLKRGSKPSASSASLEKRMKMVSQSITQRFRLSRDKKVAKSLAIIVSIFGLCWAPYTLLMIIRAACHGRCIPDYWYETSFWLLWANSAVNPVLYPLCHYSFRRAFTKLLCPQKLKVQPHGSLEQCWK

[4] = target: Histamine H3 receptor (Homo sapiens, UniProt Q9Y5N1); test: Displacement of [3H]NAMH from human cloned […] expressed in CHO cells; format: cell-based
Sequence of Histamine H3 receptor (Homo sapiens, UniProt Q9Y5N1) (Q9Y5N1 whole entry): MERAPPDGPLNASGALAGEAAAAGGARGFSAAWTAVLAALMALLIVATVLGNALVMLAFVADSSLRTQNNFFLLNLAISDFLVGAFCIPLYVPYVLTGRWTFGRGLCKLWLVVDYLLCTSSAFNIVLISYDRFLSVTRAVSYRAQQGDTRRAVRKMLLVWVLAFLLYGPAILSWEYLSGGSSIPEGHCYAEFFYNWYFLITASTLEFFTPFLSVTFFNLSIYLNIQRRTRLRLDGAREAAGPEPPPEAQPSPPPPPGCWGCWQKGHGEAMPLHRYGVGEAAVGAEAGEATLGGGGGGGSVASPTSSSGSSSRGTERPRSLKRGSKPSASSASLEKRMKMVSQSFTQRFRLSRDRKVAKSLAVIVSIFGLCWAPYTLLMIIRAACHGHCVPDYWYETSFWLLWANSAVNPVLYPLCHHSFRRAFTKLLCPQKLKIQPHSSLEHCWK

[5] = Oral bioavailability in Sprague-Dawley rat at 5 mg/kg; format: ADME, organism-based; conditions: in vivo
[6] = Ratio of drug level in brain to plasma in Sprague-Dawley rat at 10 mg/kg, ip after 1 hr; format: ADME, organism-based; parameters: dose 10 mg/kg, route intraperitoneal; conditions: brain and plasma, read-out: BPR

Row | Structure (SMILES) | clearance [1] [mL/min/kg] | half-life [2] [h] | Ki [3] [nM] | Ki [4] [nM] | bioavailability [5] [%] | Kp at 1 h [6]
1 | O=c1cc(-c2ccc(OCCCN3CCCCC3)cc2)cnn1-c1ccccn1 | 11 | 1.6 | 16 | 7.8 | 26 | 1.6
2 | Cc1n[nH]c(=O)cc1-c1ccc(OCCCN2CCC[C@H]2C)cc1 | 25 | 1.4 | 5.1 | 1.6 | 20 | 1.6
3 | C[C@H]1CCCN1CCCOc1ccc(-c2cnn(-c3ccccn3)c(=O)c2)cc1 | 45 | 2.8 |  |  | 52 | 1.7
4 | Cc1cccc(-n2ncc(-c3ccc(OCCCN4CCC[C@H]4C)cc3)cc2=O)n1 | 23 | 2.2 | 4.4 | 1.8 | 12 | 1
5 | O=c1cc(-c2ccc(OCCCN3CCCCC3)cc2)cn[nH]1 | 24 | 1.6 | 28 | 19 | 42 | 3
6 | Cc1nn(C)c(=O)cc1-c1ccc(OCCCN2CCC[C@H]2C)cc1 | 67 | 1.2 | 6.5 | 2 | 53 | 1.7
7 | CC(C)n1ncc(-c2ccc(OCCCN3CCC[C@H]3C)cc2)cc1=O | 12 | 0.3 | 7 | 2.7 | 1 | 5.1
8 | Cc1n[nH]c(=O)cc1-c1ccc(OCCCN2CCCCCC2)cc1 | 54 | 1 | 7.5 | 4.8 | 25 | 1.2
9 | C[C@@H]1CCCN1CCCOc1ccc(-c2cn[nH]c(=O)c2)cc1 |  |  |  |  |  | 1.8
10 | Cn1ncc(-c2ccc(OCCCN3CCCCC3)cc2)cc1=O | 75 | 0.6 | 30 | 13 | 40 | 5.3
